PMC10459686, “Preclinical Evaluation of a New Series of Albumin-Binding ^177Lu-Labeled PSMA-Based Low-Molecular-Weight Radiotherapeutics” (Molecules, 2023)

Legend:
PSMA+ PC3 PIP cells = experiment: Clonogenic survival assay; assay type: cell-based, human; conditions: 48 h treatment at 37 °C
Description: Cells (200–1000) were seeded in 60 mm culture dishes. Each radioligand (^177Lu-L1, ^177Lu-Alb-L2, ^177Lu-Alb-L5) was diluted in a prewarmed medium at different concentrations (0, 0.37, 1.85, 3.7, 18.5, 37, 185, and 370 kBq/mL) and incubated with the cells for 48 h, as we previously reported. The radiolabeled compound was replaced with fresh medium, and cells were incubated for 2 weeks or until colonies had at least 50 cells. The colonies were stained with crystal violet and counted, and the surviving fraction was normalized to the control plating efficiency, as previously described.

[1] = system: patients with metastatic castration-resistant prostate cancer; parameters: method as in PMID 34161051, PMID 34385339; conditions: treatment group of randomized patients; cited from earlier work
patients = system: patients; parameters: method as in PMID 32949253; conditions: than 177Lu-EB-PSMA-617 and 177Lu-PSMA-ALB-56; clinical studies; cited from earlier work

## O=C(O)CCC(NC(=O)NC(CCCCN(Cc1ccc(Br)cc1)C(=O)CCCCNC(=O)CN1CCN(CC(=O)O)CCN(CC(=O)O)CCN(CC(=O)O)CC1)C(=O)O)C(=O)O (stereo not shown) [177Lu-L1, metal not drawn]
PSMA+ PC3 PIP cells
  Activity to reduce cell survival to 37% (A0): 18.5 kBq/mL
  Concentration of radioactivity for complete cell killing: 370 kBq/mL

## O=C([O-])CN1CCN(CC(=O)[O-])CCN(CC(=O)NCC2CCC(C(=O)N[C@@H](Cc3ccc4ccccc4c3)C(=O)NCCCC[C@H](NC(=O)N[C@@H](CCC(=O)O)C(=O)O)C(=O)O)CC2)CCN(CC(=O)[O-])CC1.[177Lu+3] (stereo partly shown) [177Lu-PSMA-617]
[1]
  Median overall survival: 15.3 months
patients
  Kidney-absorbed dose, fold lower: ~ 4 fold
